Our source for the GI50 and IC50 values is patent publication US20250018047A1, “METHODS AND COMPOSITIONS FOR TARGETED PROTEIN DEGRADATION” (Ranok Therapeutics (Hangzhou) Co. Ltd., priority 2021, published 2025).

The structures appear in SMILES notation. Structures can show the parent of a compound that is named as a salt.

In test [1] the target is BA/F3-KRAS(G12D) murine pro-B cell line stably expressing KRAS(G12D) (Homo sapiens, UniProt P01116, G12D, cells depend on it). As to the kind of experiment: CellTiter-Glo cancer cell line proliferation assay, BA/F3-KRAS(G12D). Type of test: cell-based. The note with it: 24 hr, read-out: BAF3 at 24 hrs, IC50. In a few lines:
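BA/F3 cells expressing KRAS(G12D), 4,000/well in RPMI 1640 + 10% FCS, exposed 24 h at 37 °C to 3-fold dilutions (20 μM to 1.02 nM, 0.5% DMSO). Viability by CellTiter-Glo luminescence; IC50 calculated from the dose-response.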
(In ATP-based viability assays light output follows the ATP content of the culture.)

Test [2] has as its target T1, KRAS(G12D)/SOS1 (Homo sapiens, UniProt P01116, G12D).
T1 construct: purchased Cisbio 63ADK000CB16PEG
As to the kind of experiment: KRAS(G12D)/SOS1 homogeneous time-resolved fluorescence (HTRF) assay. Type of test: binding. The note with it: absence of GTP, 4° C. for 3 hr. As to the method:
The test compound was mixed and incubated with reaction components, incubated in a sealed plate at 4° C. for 3 hr and fluorescence was measured using a PerkinElmer Envision plate reader.
A general note: In TR-FRET formats the signal depends on donor and acceptor labels being close together.

Test [3] deals with A-427 human lung carcinoma. As to the kind of experiment: CellTiter-Glo cancer cell line proliferation assay, A-427. Type of test: cell-based. Particulars: Homo sapiens, A-427, 24 hr, read-out: A427 at 24 hrs, IC50. In short, it runs like this:
(§1)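 Cells plated at 4,000/well, grown 24 h at 37 °C/5% CO2, then exposed to compound concentration series (0.5% DMSO final) for 24 h. Viability read by CellTiter-Glo luminescence; IC50 values calculated.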

The test system of test [4] is AsPC-1 human pancreatic adenocarcinoma. As to the kind of experiment: CellTiter-Glo cancer cell line proliferation assay, AsPC-1. In kind it is cell-based. Particulars: Homo sapiens, ASPC1, 24 hr. In short, it runs like this: as §1

Sequence of BA/F3-KRAS(G12D) murine pro-B cell line stably expressing KRAS(G12D) (P01116 whole entry G12D): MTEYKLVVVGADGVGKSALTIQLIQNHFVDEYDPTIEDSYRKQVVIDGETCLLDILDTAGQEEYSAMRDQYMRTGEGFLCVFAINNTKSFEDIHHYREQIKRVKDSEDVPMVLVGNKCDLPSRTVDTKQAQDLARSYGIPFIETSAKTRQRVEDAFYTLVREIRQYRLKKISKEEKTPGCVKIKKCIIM
T1 sequence (P01116 1-188 isoform P01116-2 G12D): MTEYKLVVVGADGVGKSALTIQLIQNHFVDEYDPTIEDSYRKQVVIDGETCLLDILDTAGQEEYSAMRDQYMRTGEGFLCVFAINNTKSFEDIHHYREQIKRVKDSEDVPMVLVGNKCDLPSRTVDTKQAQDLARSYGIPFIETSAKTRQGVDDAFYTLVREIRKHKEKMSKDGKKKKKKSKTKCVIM

As to `CN1C[C@@H](N2CCC(C(=O)NCCOCCOc3ccc4c(c3)C(=O)N(C3CCC(=O)NC3=O)C4=O)CC2)C[C@H]1COc1nc(N2CC3CCC(C2)N3)c2cnc(-c3cccc4ccccc34)c(F)c2n1` (stereo partly drawn) [Compound 21, 1-((3S,5S)-5-(((4-(3,8-diazabicyclo[3.2.1]octan-3-yl)-8-fluoro-7-(naphthalen-1-yl)pyrido[4,3-d]pyrimidin-2-yl)oxy)methyl)-1-methylpyrrolidin-3-yl)-N-(2-(2-((2-(2,6-dioxopiperidin-3-yl)-1,3-dioxoisoindolin-5-yl)oxy)ethoxy)ethyl)piperidine-4-carboxamide formate], in test [1], the GI50 is over 1000 nM. The IC50 is 100 to 1000 nM in test [2], over 1000 nM in test [3] and over 1000 nM in test [4].

On to `C#Cc1cccc2cccc(-c3ncc4c(N5CC6CCC(C5)N6)nc(OCC5(CN6CCN(Cc7ccc8c(c7)C(=O)N(C7CCC(=O)NC7=O)C8=O)CC6)CC5)nc4c3F)c12` (stereo not drawn) [Compound 28, 5-((4-((1-(((4-(3,8-diazabicyclo[3.2.1]octan-3-yl)-7-(8-ethynylnaphthalen-1-yl)-8-fluoropyrido[4,3-d]pyrimidin-2-yl)oxy)methyl)cyclopropyl)methyl)piperazin-1-yl)methyl)-2-(2,6-dioxopiperidin-3-yl)isoindoline-1,3-dione formate], for which the GI50 in test [1] is over 1000 nM. For the same compound, the IC50 in test [2] is under 100 nM; in test [3] it was over 1000 nM; in test [4] it was over 1000 nM.

With `CN1C[C@@H](N2CCC(C(=O)NCCOc3ccc4c(c3)C(=O)N(C3CCC(=O)NC3=O)C4=O)CC2)C[C@H]1COc1nc(N2CC3CCC(C2)N3)c2cnc(-c3cccc4ccccc34)c(F)c2n1` (stereo partly drawn) [Compound 22, 1-((3S,5S)-5-(((4-(3,8-diazabicyclo[3.2.1]octan-3-yl)-8-fluoro-7-(naphthalen-1-yl)pyrido[4,3-d]pyrimidin-2-yl)oxy)methyl)-1-methylpyrrolidin-3-yl)-N-(2-((2-(2,6-dioxopiperidin-3-yl)-1,3-dioxoisoindolin-5-yl)oxy)ethyl)piperidine-4-carboxamide formate], the GI50 in test [1] was over 1000 nM. In addition, the IC50 in test [2], in test [3] and in test [4] was over 1000 nM in each case.

Turning to `CN1C[C@@H](N2CCC(C(=O)N3CCN(c4ccc5c(c4)C(=O)N(C4CCC(=O)NC4=O)C5=O)CC3)CC2)C[C@H]1COc1nc(N2CC3CCC(C2)N3)c2cnc(-c3cccc4cccc(Cl)c34)c(F)c2n1` (stereo partly drawn) [Compound 9, 5-(4-(1-((3S,5S)-5-(((4-(3,8-diazabicyclo[3.2.1]octan-3-yl)-7-(8-chloronaphthalen-1-yl)-8-fluoropyrido[4,3-d]pyrimidin-2-yl)oxy)methyl)-1-methylpyrrolidin-3-yl)piperidine-4-carbonyl)piperazin-1-yl)-2-(2,6-dioxopiperidin-3-yl)isoindoline-1,3-dione hydrochloride], in test [1], the GI50 is over 1000 nM. Besides, the figures for the half-maximal inhibitory concentration (IC50) in test [2], in test [3] and in test [4] were under 100 nM, over 1000 nM and over 1000 nM, respectively.

For the compound `Cc1ncsc1-c1ccc(CNC(=O)[C@@H]2C[C@@H](O)CN2C(=O)[C@@H](NC(=O)C2CCN([C@H]3C[C@@H](COc4nc(N5CC6CCC(C5)N6)c5cnc(-c6cccc7cccc(Cl)c67)c(F)c5n4)N(C)C3)CC2)C(C)(C)C)cc1` [Compound 24, 1-((3S,5S)-5-(((4-(3,8-diazabicyclo[3.2.1]octan-3-yl)-7-(8-chloronaphthalen-1-yl)-8-fluoropyrido[4,3-d]pyrimidin-2-yl)oxy)methyl)-1-methylpyrrolidin-3-yl)-N—((S)-1-((2S,4R)-4-hydroxy-2-((4-(4-methylthiazol-5-yl)benzyl)carbamoyl)pyrrolidin-1-yl)-3,3-dimethyl-1-oxobutan-2-yl)piperidine-4-carboxamide formate], in test [1], the GI50 is over 1000 nM. Moreover, the IC50 in test [2] is 100 to 1000 nM; in test [3] it was over 1000 nM; in test [4], over 1000 nM.

Regarding `C#Cc1cccc2cccc(-c3ncc4c(N5CC6CCC(C5)N6)nc(OC[C@@H]5C[C@H](N6CCN(CC7CCN(c8ccc9c(c8)C(=O)N(C8CCC(=O)NC8=O)C9=O)CC7)CC6)CN5C)nc4c3F)c12` (stereo partly drawn) [Compound 5, 5-(4-((4-((3S,5S)-5-(((4-(3,8-diazabicyclo[3.2.1]octan-3-yl)-7-(8-ethynylnaphthalen-1-yl)-8-fluoropyrido[4,3-d]pyrimidin-2-yl)oxy)methyl)-1-methylpyrrolidin-3-yl)piperazin-1-yl)methyl)piperidin-1-yl)-2-(2,6-dioxopiperidin-3-yl)isoindoline-1,3-dione hydrochloride], the GI50 in test [1] was 100 to 1000 nM. In addition, the IC50 in test [2] is under 100 nM; in test [3] it was over 1000 nM; in test [4], over 1000 nM.

Take `CN1C[C@@H](N2CCC(C(=O)NCCOc3ccc4c(c3)C(=O)N(C3CCC(=O)NC3=O)C4=O)CC2)C[C@H]1COc1nc(N2CC3CCC(C2)N3)c2cnc(-c3cccc4cccc(Cl)c34)c(F)c2n1` (stereo partly drawn) [Compound 12, 1-((3S,5S)-5-(((4-(3,8-diazabicyclo[3.2.1]octan-3-yl)-7-(8-chloronaphthalen-1-yl)-8-fluoropyrido[4,3-d]pyrimidin-2-yl)oxy)methyl)-1-methylpyrrolidin-3-yl)-N-(2-((2-(2,6-dioxopiperidin-3-yl)-1,3-dioxoisoindolin-5-yl)oxy)ethyl)piperidine-4-carboxamide hydrochloride]: the GI50 in test [1] was over 1000 nM. The IC50 in test [2] is 100 to 1000 nM; in test [3] it was over 1000 nM; in test [4], over 1000 nM.

With `C#Cc1cccc2cccc(-c3ncc4c(N5CC6CCC(C5)N6)nc(OC[C@@H]5C[C@H](N6CCN(CC7CCN(c8cccc9c8C(=O)N(C8CCC(=O)NC8=O)C9=O)CC7)CC6)CN5C)nc4c3F)c12` (stereo partly drawn) [Compound 6, 4-(4-((4-((3S,5S)-5-(((4-(3,8-diazabicyclo[3.2.1]octan-3-yl)-7-(8-ethynylnaphthalen-1-yl)-8-fluoropyrido[4,3-d]pyrimidin-2-yl)oxy)methyl)-1-methylpyrrolidin-3-yl)piperazin-1-yl)methyl)piperidin-1-yl)-2-(2,6-dioxopiperidin-3-yl)isoindoline-1,3-dione hydrochloride], the GI50 in test [1] was over 1000 nM. For the same compound, the IC50 was under 100 nM in test [2], over 1000 nM in test [3] and over 1000 nM in test [4].

For `C#Cc1cccc2cccc(-c3ncc4c(N5CC6CCC(C5)N6)nc(OCC5(CN6CCN(C(=O)C7CCN(c8ccc9c(c8)C(=O)N(C8CCC(=O)NC8=O)C9=O)CC7)CC6)CC5)nc4c3F)c12` (stereo not drawn) [Compound 30, 5-(4-(4-((1-(((4-(3,8-diazabicyclo[3.2.1]octan-3-yl)-7-(8-ethynylnaphthalen-1-yl)-8-fluoropyrido[4,3-d]pyrimidin-2-yl)oxy)methyl)cyclopropyl)methyl)piperazine-1-carbonyl)piperidin-1-yl)-2-(2,6-dioxopiperidin-3-yl)isoindoline-1,3-dione formate], the GI50 in test [1] was over 1000 nM. In addition, the results for the IC50 in test [2], in test [3] and in test [4] were under 100 nM, over 1000 nM and over 1000 nM, respectively.

Regarding `C#Cc1cccc2cccc(-c3ncc4c(N5CC6CCC(C5)N6)nc(OC[C@@H]5CC[C@H](CN6CCN(CC7CCN(c8cccc9c8C(=O)N(C8CCC(=O)NC8=O)C9=O)CC7)CC6)N5C)nc4c3F)c12` (stereo partly drawn) [Compound 14, 4-(4-((4-(((2R,5S)-5-(((4-(3,8-diazabicyclo[3.2.1]octan-3-yl)-7-(8-ethynylnaphthalen-1-yl)-8-fluoropyrido[4,3-d]pyrimidin-2-yl)oxy)methyl)-1-methylpyrrolidin-2-yl)methyl)piperazin-1-yl)methyl)piperidin-1-yl)-2-(2,6-dioxopiperidin-3-yl)isoindoline-1,3-dione], the GI50 in test [1] lay within 100 to 1000 nM. Also, the IC50 is under 100 nM in test [2], over 1000 nM in test [3] and 100 to 1000 nM in test [4].

As to `C#Cc1cccc2cccc(-c3ncc4c(N5CC6CCC(C5)N6)nc(OC[C@@H]5C[C@H](N6CCN(C(=O)C7CCN(c8ccc9c(c8)C(=O)N(C8CCC(=O)NC8=O)C9=O)CC7)CC6)CN5C)nc4c3F)c12` (stereo partly drawn) [Compound 8, 5-(4-(4-((3S,5S)-5-(((4-(3,8-diazabicyclo[3.2.1]octan-3-yl)-7-(8-ethynylnaphthalen-1-yl)-8-fluoropyrido[4,3-d]pyrimidin-2-yl)oxy)methyl)-1-methylpyrrolidin-3-yl)piperazine-1-carbonyl)piperidin-1-yl)-2-(2,6-dioxopiperidin-3-yl)isoindoline-1,3-dione hydrochloride], the GI50 in test [1] is over 1000 nM. Moreover, the figures for the IC50 in test [2], in test [3] and in test [4] were under 100 nM, over 1000 nM and over 1000 nM, respectively.

In the case of `C#Cc1cccc2cccc(-c3ncc4c(N5CC6CCC(C5)N6)nc(OCCN5CCN(C(=O)C6CCN(c7ccc8c(c7)CN(C7CCC(=O)NC7=O)C8=O)CC6)CC5)nc4c3F)c12` (stereo not drawn) [Compound 17, 3-(5-(4-(4-(2-((4-(3,8-diazabicyclo[3.2.1]octan-3-yl)-7-(8-ethynylnaphthalen-1-yl)-8-fluoropyrido[4,3-d]pyrimidin-2-yl)oxy)ethyl)piperazine-1-carbonyl)piperidin-1-yl)-1-oxoisoindolin-2-yl)piperidine-2,6-dione formate], the GI50 in test [1] was over 1000 nM. The IC50 in test [2] was under 100 nM; in test [3] it was over 1000 nM; in test [4], over 1000 nM.

The term IC50 denotes the concentration at which inhibition is half-maximal.
